Data from patent US6914045B2, “Glycopeptide antibiotics” (Wyeth Holdings Corporation, priority 2001, dated 2005).
≈ marks a conversion by molar mass, not a printed value. Numbered stars: 1 amine (or outer) side, 2 acyl side, 3 side chain; on linkers, the order of the positions; unused ones are H or OH. Square brackets hold non-standard residues; d marks the D form. Peptide text beside a SMILES is read from it. * marks the point of attachment. ξ: configuration not given here. X1 = N=C1NCC(C(O)C(N[*:1])C(=O)[*:2])N1C1OC(CO)C(O)C(O)C1O; ξEnduracididine(βξ-OH,4'ξ) = N=C1NCC(C(O)C(N)C(=O)O)N1; ξPhe(4-Cl,βξ-Me) = CC(c1ccc(Cl)cc1)C(N)C(=O)O; X2 = OCC1OC(OC2C(CO)OC(*)C(O)C2O)C(O)C(O)C1O

Columns and labels:
Test in all cases: in vitro antibacterial evaluation, MIC by broth dilution
Format in all cases: cell-based
Escherichia coli = details: 18 hours at 35° C.
Outline: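 MIC = lowest antibiotic concentration preventing visible growth; inoculum 5×10^5 CFU/mL; drug range 64-0.06 μg/mL; Muller-Hinton II […]; NCCLS M7-A2 guidance.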

Enterococcus sp. = details: broth dilution, 18 hours at 35° C.
Outline: (§1)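 Inoculum 5×10^5 CFU/mL; concentrations 64 to 0.06 μg/mL; MIC defined as lowest inhibitory level. Conducted by broth dilution under NCCLS guidelines.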

Staphylococcus sp. = details: broth dilution, 18 hours at 35° C.
Outline: as §1

Streptococcus sp. = details: broth dilution, 18 hours at 35° C.
Outline: as §1

MIC Escherichia coli (ATCC 25922) (Escherichia coli; Escherichia coli (ATCC 25922)): >128 µg/mL | MIC Escherichia coli (GC 4559) (Escherichia coli; Escherichia coli (GC 4559)): >128 µg/mL | MIC Escherichia coli (GC 4560) (Escherichia coli; Escherichia coli (GC 4560)): 16 µg/mL (≈ 12 µM) | MIC Enterococcus avium (GC 4558) (Enterococcus sp.; Enterococcus avium (GC 4558)): >128 µg/mL | MIC Enterococcus faecalis (ATCC 29212) (Enterococcus sp.; Enterococcus faecalis (ATCC 29212)): >128 µg/mL | MIC Enterococcus faecalis (GC 4553) (Enterococcus sp.; Enterococcus faecalis (GC 4553)): >128 µg/mL | MIC Enterococcus faecalis (GC 4554) (Enterococcus sp.; Enterococcus faecalis (GC 4554)): >128 µg/mL | MIC Enterococcus faecium (GC 2243) (Enterococcus sp.; Enterococcus faecium (GC 2243)): >128 µg/mL | MIC Enterococcus faecium (GC 4556) (Enterococcus sp.; Enterococcus faecium (GC 4556)): >128 µg/mL | MIC Enterococcus faecium (GC 4557) (Enterococcus sp.; Enterococcus faecium (GC 4557)): >128 µg/mL | MIC Enterococcus faecalis (ATCC 29212) (Enterococcus sp.; strain ATCC 29212): >128 µg/mL | MIC Enterococcus faecalis (GC 2242) (Enterococcus sp.; strain GC 2242): >128 µg/mL | MIC Enterococcus faecium (GC 2243) (Enterococcus sp.; strain GC 2243): >128 µg/mL | MIC Enterococcus faecalis (GC 4552) (Enterococcus sp.; strain GC 4552): >128 µg/mL | MIC Enterococcus faecalis (GC 4553) (Enterococcus sp.; strain GC 4553): >128 µg/mL | MIC Enterococcus faecalis (GC 4554) (Enterococcus sp.; strain GC 4554): >128 µg/mL | MIC Enterococcus faecium (GC 4556) (Enterococcus sp.; strain GC 4556): >128 µg/mL | MIC Enterococcus faecium (GC 4557) (Enterococcus sp.; strain GC 4557): >128 µg/mL | MIC Enterococcus avium (GC 4558) (Enterococcus sp.; strain GC 4558): >128 µg/mL | MIC Coagulase Negative Staphylococcus (GC 4547) (Staphylococcus sp.): 64 µg/mL (≈ 48.1 µM) | MIC Coagulase Negative Staphylococcus (GC 4548) (Staphylococcus sp.): 64 µg/mL (≈ 48.1 µM) | MIC Coagulase Negative Staphylococcus (GC 4549) (Staphylococcus sp.): 16 µg/mL (≈ 12 µM) | MIC Coagulase Negative Staphylococcus (GC 4551) (Staphylococcus sp.): 128 µg/mL (≈ 96.3 µM) | MIC Staphylococcus aureus (ATCC 29213) (Staphylococcus sp.): 64 µg/mL (≈ 48.1 µM) | MIC Staphylococcus aureus (GC 1131) (Staphylococcus sp.): 128 µg/mL (≈ 96.3 µM) | MIC Staphylococcus aureus (GC 4541) (Staphylococcus sp.): 64 µg/mL (≈ 48.1 µM) | MIC Staphylococcus aureus (GC 4542) (Staphylococcus sp.): >128 µg/mL | MIC Staphylococcus aureus (GC 4544) (Staphylococcus sp.): 64 µg/mL (≈ 48.1 µM) | MIC Staphylococcus aureus (GC 4545) (Staphylococcus sp.): 64 µg/mL (≈ 48.1 µM) | MIC Staphylococcus aureus-SMITH (GC 4543) (Staphylococcus sp.): 64 µg/mL (≈ 48.1 µM) | MIC Staphylococcus aureus (ATCC 29213) (Staphylococcus sp.; strain ATCC 29213): 64 µg/mL (≈ 48.1 µM) | MIC Staphylococcus aureus (GC 1131) (Staphylococcus sp.; strain GC 1131): 128 µg/mL (≈ 96.3 µM) | MIC Staphylococcus aureus (GC 4541) (Staphylococcus sp.; strain GC 4541): 64 µg/mL (≈ 48.1 µM) | MIC Staphylococcus aureus (GC 4542) (Staphylococcus sp.; strain GC 4542): >128 µg/mL | MIC Staphylococcus aureus (GC 4544) (Staphylococcus sp.; strain GC 4544): 64 µg/mL (≈ 48.1 µM) | MIC Staphylococcus aureus (GC 4545) (Staphylococcus sp.; strain GC 4545): 64 µg/mL (≈ 48.1 µM) | MIC Coagulase Negative Staphylococcus (GC 4547) (Staphylococcus sp.; strain GC 4547): 64 µg/mL (≈ 48.1 µM) | MIC Coagulase Negative Staphylococcus (GC 4548) (Staphylococcus sp.; strain GC 4548): 64 µg/mL (≈ 48.1 µM) | MIC Coagulase Negative Staphylococcus (GC 4549) (Staphylococcus sp.; strain GC 4549): 16 µg/mL (≈ 12 µM) | MIC Coagulase Negative Staphylococcus (GC 4551) (Staphylococcus sp.; strain GC 4551): 128 µg/mL (≈ 96.3 µM) | MIC Staphylococcus aureus-SMITH (GC 4543) (Staphylococcus sp.; strain SMITH GC 4543): 64 µg/mL (≈ 48.1 µM) | MIC Streptococcus agalactiae (GC 4564) (Streptococcus sp.; strain GC 4564): 32 µg/mL (≈ 24.1 µM) | MIC Streptococcus pyogenes (ID-3187) (Streptococcus sp.; strain ID-3187): 32 µg/mL (≈ 24.1 µM)
Structure (SMILES): CC(c1ccc(Cl)cc1)C1NC(=O)CNC(=O)C(CO)NC(=O)C(C(O)C2CNC(=N)N2C2OC(CO)C(O)C(O)C2O)NC(=O)C(C(O)C2CNC(=N)N2)NC(=O)C(Cc2ccc(OC3OC(CO)C(OC4OC(CO)C(O)C(O)C4O)C(O)C3O)cc2)NC1=O (stereo not drawn) [Example 262a, Cyclo[glycyl-4-chloro-β-methylphenylalanyl-O-(4-O-hexopyranosylhexopyranosyl)tyrosyl-3-(2-iminoimidazolidin-4-yl)seryl-3-(3-hexoopyranosyl-2-iminoimidazolidin-4-yl)serylseryl]] (cyclo(G[ξPhe(4-Cl,βξ-Me)]Y(X2)[ξEnduracididine(βξ-OH,4'ξ)][X1]S); configuration not given here)
MIC Staphylococcus haemolyticus (GC 4546) (Staphylococcus sp.): 64 µg/mL (≈ 48.1 µM) | MIC Staphylococcus haemolyticus (GC 4546) (Staphylococcus sp.; strain GC 4546): 64 µg/mL (≈ 48.1 µM)
